From ChEMBL document CHEMBL1201862, “PubChem BioAssay data set” (2004)
Active and inactive are the calls of the source.

Assays:
[1] = NIH3T3 cell viability loss – ATP luminescence, mouse fibroblasts, counter-screen, dose response (AID 2010); type: functional, cell-based;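 also: cells exposed to compound for about 90 hours before reading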
[2] = cervical cancer cell viability loss – HeLa, 24 h, plate reader, powder samples, set 3, cytotoxicity control, dose response (AID 651864); type: functional, cell-based
[3] = Trypanosoma cruzi growth suppression in host cells – NIH3T3 host cells, beta-gal luminescence, confirmation (AID 2044); type: functional, cell-based;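 also: intracellular parasites grown in NIH/3T3 mouse fibroblasts as host cells; luminescent beta-galactosidase reporter signal from transgenic T. cruzi replicating inside host cells; inhibitors lower the luminescence signal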
[4] = biological target: T1, Sentrin-specific protease 6 (Homo sapiens, UniProt Q9GZR1); type: functional;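 also: Luminescence-based dose-response confirmatory assay of SENP6 inhibition, following up an ultra-high-throughput screen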
T1 sequence (Q9GZR1 whole entry): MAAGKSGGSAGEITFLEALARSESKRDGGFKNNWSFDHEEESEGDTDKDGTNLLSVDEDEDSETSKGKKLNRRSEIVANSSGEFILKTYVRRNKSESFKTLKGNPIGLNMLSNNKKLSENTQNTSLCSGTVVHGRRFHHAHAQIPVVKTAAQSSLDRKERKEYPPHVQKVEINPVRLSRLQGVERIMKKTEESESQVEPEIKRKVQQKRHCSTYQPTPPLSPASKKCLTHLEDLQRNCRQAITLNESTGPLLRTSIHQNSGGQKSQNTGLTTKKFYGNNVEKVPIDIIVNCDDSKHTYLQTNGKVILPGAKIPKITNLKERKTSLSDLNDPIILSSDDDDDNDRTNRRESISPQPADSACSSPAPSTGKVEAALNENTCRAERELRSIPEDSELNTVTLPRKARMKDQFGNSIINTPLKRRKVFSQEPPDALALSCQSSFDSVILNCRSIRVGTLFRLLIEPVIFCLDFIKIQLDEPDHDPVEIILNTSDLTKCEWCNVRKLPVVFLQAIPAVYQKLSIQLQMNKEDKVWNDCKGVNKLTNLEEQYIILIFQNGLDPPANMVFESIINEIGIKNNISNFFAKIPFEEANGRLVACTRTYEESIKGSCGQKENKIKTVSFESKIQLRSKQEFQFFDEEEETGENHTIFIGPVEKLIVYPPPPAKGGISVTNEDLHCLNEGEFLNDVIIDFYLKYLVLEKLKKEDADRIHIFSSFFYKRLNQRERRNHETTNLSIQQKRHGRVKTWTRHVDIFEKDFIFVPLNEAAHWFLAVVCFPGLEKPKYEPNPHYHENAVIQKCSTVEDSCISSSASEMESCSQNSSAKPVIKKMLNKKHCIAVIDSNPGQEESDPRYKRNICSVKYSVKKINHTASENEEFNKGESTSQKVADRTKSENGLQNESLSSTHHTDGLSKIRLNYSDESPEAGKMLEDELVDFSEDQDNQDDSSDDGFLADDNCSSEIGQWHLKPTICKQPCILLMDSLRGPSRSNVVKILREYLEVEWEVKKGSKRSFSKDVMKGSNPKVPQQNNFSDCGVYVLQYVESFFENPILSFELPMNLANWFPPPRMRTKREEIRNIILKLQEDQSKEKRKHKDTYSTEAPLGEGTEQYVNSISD

[5] = biological target: T2, Oxysterols receptor LXR-beta (Homo sapiens, UniProt P55055); type: functional, cell-based
T2 sequence (P55055 whole entry): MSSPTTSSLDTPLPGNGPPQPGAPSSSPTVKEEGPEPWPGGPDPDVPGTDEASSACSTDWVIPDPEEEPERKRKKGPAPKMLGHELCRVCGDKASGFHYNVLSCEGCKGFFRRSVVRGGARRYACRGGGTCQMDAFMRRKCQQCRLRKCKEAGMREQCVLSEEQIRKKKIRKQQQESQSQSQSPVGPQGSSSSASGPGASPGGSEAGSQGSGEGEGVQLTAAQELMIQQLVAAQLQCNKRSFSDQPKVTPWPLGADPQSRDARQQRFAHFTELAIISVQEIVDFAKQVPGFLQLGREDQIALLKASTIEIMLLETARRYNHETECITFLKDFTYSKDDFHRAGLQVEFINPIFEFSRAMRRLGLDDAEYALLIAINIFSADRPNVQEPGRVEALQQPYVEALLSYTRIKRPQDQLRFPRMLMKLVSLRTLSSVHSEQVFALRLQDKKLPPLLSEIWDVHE

[6] = biological target: T3, Sentrin-specific protease 8 (Homo sapiens, UniProt Q96LD8); type: functional;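 also: luminescence read-out of SENP8 inhibition, dose-response confirmation following an ultra-high-throughput screen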
T3 sequence (Q96LD8 whole entry): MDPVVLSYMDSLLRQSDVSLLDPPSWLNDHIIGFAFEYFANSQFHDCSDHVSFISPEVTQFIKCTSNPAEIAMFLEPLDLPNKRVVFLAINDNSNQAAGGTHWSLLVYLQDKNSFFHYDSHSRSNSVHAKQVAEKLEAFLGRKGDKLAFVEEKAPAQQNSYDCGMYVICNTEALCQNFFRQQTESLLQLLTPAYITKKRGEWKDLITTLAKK

[7] = biological target: T4, Caspase-3 (Homo sapiens, UniProt P42574); type: functional;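 also: Dose-response selectivity test against caspase-3 for candidate inhibitors of sentrin-specific proteases (SENPs)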
T4 sequence (P42574 whole entry): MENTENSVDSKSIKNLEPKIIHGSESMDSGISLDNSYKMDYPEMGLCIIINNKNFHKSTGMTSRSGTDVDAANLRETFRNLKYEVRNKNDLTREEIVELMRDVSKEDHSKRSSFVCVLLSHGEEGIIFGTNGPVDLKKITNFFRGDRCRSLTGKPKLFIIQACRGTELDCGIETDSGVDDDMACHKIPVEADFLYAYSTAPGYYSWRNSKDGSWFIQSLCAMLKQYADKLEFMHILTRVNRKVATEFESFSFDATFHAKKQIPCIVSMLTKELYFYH

[8] = cells
[9] = biological target: T5, Sentrin-specific protease 7 (Homo sapiens, UniProt Q9BQF6); type: functional;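 also: Luminescence-based dose-response confirmation of ultra-high-throughput screening hits, measuring inhibition of SENP7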
T5 sequence (Q9BQF6 whole entry): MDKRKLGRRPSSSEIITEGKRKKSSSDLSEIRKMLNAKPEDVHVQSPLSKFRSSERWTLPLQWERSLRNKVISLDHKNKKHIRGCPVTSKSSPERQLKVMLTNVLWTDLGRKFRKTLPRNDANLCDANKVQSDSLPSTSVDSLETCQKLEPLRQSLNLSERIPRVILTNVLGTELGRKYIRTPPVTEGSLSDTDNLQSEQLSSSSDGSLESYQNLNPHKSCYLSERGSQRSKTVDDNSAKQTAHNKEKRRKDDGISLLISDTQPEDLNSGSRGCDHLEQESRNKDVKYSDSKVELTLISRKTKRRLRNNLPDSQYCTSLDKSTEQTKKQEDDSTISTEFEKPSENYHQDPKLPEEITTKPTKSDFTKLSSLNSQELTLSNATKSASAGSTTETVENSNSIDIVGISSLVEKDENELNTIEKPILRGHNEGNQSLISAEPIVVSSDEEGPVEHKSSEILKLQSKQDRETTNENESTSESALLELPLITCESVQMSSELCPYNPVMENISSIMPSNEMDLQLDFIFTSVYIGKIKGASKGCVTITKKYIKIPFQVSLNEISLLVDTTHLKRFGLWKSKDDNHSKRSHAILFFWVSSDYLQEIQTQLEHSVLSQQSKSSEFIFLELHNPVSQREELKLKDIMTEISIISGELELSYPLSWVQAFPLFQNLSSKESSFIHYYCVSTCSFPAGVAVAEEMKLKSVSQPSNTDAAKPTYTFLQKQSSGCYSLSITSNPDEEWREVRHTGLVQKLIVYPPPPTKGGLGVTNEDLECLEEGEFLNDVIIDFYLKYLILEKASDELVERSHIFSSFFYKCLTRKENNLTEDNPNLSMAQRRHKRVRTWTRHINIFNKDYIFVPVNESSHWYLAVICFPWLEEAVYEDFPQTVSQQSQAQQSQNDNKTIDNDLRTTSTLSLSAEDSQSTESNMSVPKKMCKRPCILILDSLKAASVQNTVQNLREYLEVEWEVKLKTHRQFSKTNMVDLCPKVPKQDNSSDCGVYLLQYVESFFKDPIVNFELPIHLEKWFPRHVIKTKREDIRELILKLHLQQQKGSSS

[10] = OVCAR4 cell viability loss – plate reader, dry powder, SA11, cytotoxicity control for PAX8 inhibitor project, dose response (AID 743150); type: functional, cell-based; settings: OVCAR-4
[11] = tested on: INS1; assay: INS-1E survival protection against cytokine death – cell-based, luminescence, retest, dose response (AID 449756); type: functional; settings: Rattus norvegicus;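 also: cell death triggered by IL-1 beta plus TNF-alpha plus IFN-gamma mixture; protective hits raise ATP signal compared with cytokine alone wells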
[12] = OV-90 cell viability loss – plate reader, dry powder, SA8, PAX8 inhibitor project, dose response (AID 743149); type: functional, cell-based
[13] = inhibitors acting on PAX2 in cells – cell-based, plate reader, dry powder samples, selectivity assay for PAX8 inhibitor project, dose response (AID 743048); type: functional;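 also: HEK293 cells carrying a WT1 promoter luciferase reporter driven by expressed Pax2; potency is for inhibition of Pax2 driven reporter signal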
[14] = PAX8-dependent cell viability loss – plate reader, dry powder, dose response (AID 743049); type: functional, cell-based
[15] = COV434 cell viability loss – plate reader, dry powder, SA7, cytotoxicity control for PAX8 inhibitor project, dose response (AID 743145); type: functional, cell-based
[16] = A2780 cell killing – plate reader, dry powder samples, cytotoxicity control, dose response (AID 743046); type: functional, cell-based
[17] = toxicity toward immortalized ovarian surface epithelium – cell-based, plate reader, dry powder samples, cytotoxicity control for PAX8 inhibitor project, dose response (AID 743045); type: functional
[18] = PAX5 cellular inhibition readout – cell-based, plate reader, dry powder samples, selectivity assay for PAX8 inhibitor project, dose response (AID 743047); type: functional;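 also: HEK293 cells carrying a Pax5 driven CD19 promoter luciferase reporter; potency of inhibitors that lower reporter luminescence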
[19] = COV362 cell viability loss – plate reader, dry powder, SA12, cytotoxicity control for PAX8 inhibitor project, dose response (AID 743144); type: functional, cell-based
[20] = general cell-killing toxicity readout – plate reader, dry powder samples, cytotoxicity control for PAX8 inhibitor project, dose response (AID 743021); type: functional, cell-based
[21] = biological target: Paired box protein Pax-8 (Homo sapiens, UniProt Q06710); assay: PAX8 transcriptional activity inhibition in RMG-I – RMG-I cells, luciferase, cherry-pick, dose response (AID 687027); type: functional, cell-based;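 also: luciferase reporter driven by Pax8 target thyroperoxidase promoter measured by SteadyGlo luminescence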
[22] = OVCAR-3 cell viability loss – plate reader, dry powder samples, PAX8 inhibitor project, dose response (AID 743044); type: functional, cell-based
[23] = cells; remark: listed apart in the source
[24] = reduced cellular PGC1a acetyl-lysine signal – cell-based, cherry-picked samples, dose response (AID 720514); type: functional;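 also: potency may reflect raised or lowered acetylation signal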
[25] = biological target: T2, Oxysterols receptor LXR-beta; type: functional, cell-based; remark: listed apart in the source
[26] = viability loss in HepG2 hepatoma cells – cell-based, ATP luminescence, cherry-pick, activator set 2, cytotoxicity control, dose response (AID 1053143); type: functional

Sequence of Paired box protein Pax-8 (Q06710 whole entry): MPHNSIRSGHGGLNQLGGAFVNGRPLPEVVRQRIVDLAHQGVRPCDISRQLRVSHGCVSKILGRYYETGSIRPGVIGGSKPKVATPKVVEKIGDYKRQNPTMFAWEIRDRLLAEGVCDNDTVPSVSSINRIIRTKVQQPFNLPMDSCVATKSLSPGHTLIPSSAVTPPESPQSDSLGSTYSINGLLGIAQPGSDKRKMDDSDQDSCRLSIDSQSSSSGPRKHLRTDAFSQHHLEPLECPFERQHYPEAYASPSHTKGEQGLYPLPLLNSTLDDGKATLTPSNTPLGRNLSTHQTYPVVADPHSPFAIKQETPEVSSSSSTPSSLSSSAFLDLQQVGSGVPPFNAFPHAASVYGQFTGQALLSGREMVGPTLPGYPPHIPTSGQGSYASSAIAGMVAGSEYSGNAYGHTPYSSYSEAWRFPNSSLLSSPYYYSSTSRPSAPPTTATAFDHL

## CCC(C)NC(=O)Cc1ccc(-c2ccccc2)cc1 (stereo unspecified)
[1]
  EC50: > 60 µM (not active)
[2]
  AC50: 141 µM (active)
[3]
  EC50: 794 nM (active)

## Cc1cc(C)nc(Nc2nc(-c3ccccc3)cs2)n1
[4]
  IC50: 2.1 µM (active)
[5]
  EC50: > 67.5 µM (inactive)
[6]
  IC50: 3.29 µM (active)
[7]
  IC50: > 100 µM (inactive)
[8]
  EC50: > 67.5 µM (inactive)
[9]
  IC50: 1.89 µM (active)

## O=C(Nc1cccc(Cl)c1)Nc1nnc(CSCCOc2ccc(Cl)cc2)s1
[10]
  AC50: 22.2 µM (active)
[11]
  AC50: 3.05 µM (active)
[12]
  AC50: 26.1 µM (active)
[13]
  AC50: 8.06 µM (active)
[14]
  AC50: 5.65 µM (active)
[15]
  AC50: 12.8 µM (active)
[16]
  AC50: 6.08 µM (active)
[17]
  AC50: 14.6 µM (active)
[18]
  AC50: 4.51 µM (active)
[19]
  AC50: 10.7 µM (active)
[20]
  AC50: 16 µM (active)
[21]
  AC50: 5.94 µM (active)
[22]
  AC50: 15 µM (active)

## CC(C)N1CCc2c(sc(NC(=O)Cc3ccccc3)c2C#N)C1
[23]
  AC50: 10.8 µM (active)

## CCOc1ccnc(OCC)c1Br
[24]
  AC50: 32.8 µM (active)

## Cc1nc2[nH]c(-c3cccs3)nc2cc1Br
[25]
  EC50: > 67.5 µM (inactive)
[26]
  AC50: 26 µM (active)
